Assay results as given in US20240307346A1, “METHOD FOR TREATING OR PREVENTING A DISEASE OF INCOMPLETE IMMUNE RECONSTITUTION IN AIDS USING (5R)-5-HYDROXYTRIPTOLIDE” (PEKING UNION MEDICAL COLLEGE HOSPITAL, priority 2018, published 2024).
In brackets after ≈: the same amount, converted by molar mass.

What was measured:
[1] = tested on: NF-κB; assay: NF-κB luciferase reporter (p3κB-luc) assay in HEK293T cells; type: cell-based; conditions: for inhibition of the activity of the NF-κB signal pathway activated by TNF-α / inhibition of the activity of the background NF-κB signaling pathway: Comparative Example 2, HEK293T, FIG. 5; for inhibition of the activity of the NF-κB signal pathway activated by TNF-α: TNF-α 20 ng/ml; for inhibition of the activity of the background NF-κB signaling pathway: no TNF-α
Experimental: NF-κB driven […] expression plasmid (p3κB-luc, 100 ng) and internal reference plasmid pBgal (purchased from Bioonline: www.bioon.com.cn) (pSV-β-Galactosidase Control Vector, β-galactosidase expression plasmid, 5 ng) were transfected into HEK293T cells (purchased from ATCC). […] After another 24 hours, all cells were collected and lysed with reporter lysis buffer (purchased from Promega). Luciferase assay system (Promega) was used to detect luciferase activity. Beta-Glo Asaay system (Promega) was used to detect β-Galactosidase activity, and the inhibition effects of T8 on NF-κB activity was analyzed.
The NF-κB reporter gene plasmid p3κB-luc was transfected into HEK293T cells for expression, and pSV-β-Galactosidase Control Vector was co-transfected as transfection internal reference. The activation of NF-κB was induced by TNF-α treatment. T8 and triptolide were added respectively. The expression of NF-κB reporter gene was indicated by detecting luciferase activity, and the effect of T8 and triptolide on NF-κB activation induced by TNF-α was evaluated.
Cell transfection: HEK293T cells were transfected with lipofectamine 2000 Transfection Reagent according to the reagent instructions. 100 ng of plasmid was transfected with 1 μL of transfection reagent into each well of a 24-well cell cultureplate. The plasmid and the transfection reagent were diluted with […] of OPTI-MEM medium, respectively and then mixed together. The mixture was allowed to stand at room temperature for 5 minutes, and then added into the cells in each well. The resulting mixture was mixed gently, placed back into the 37° C. incubator, and the cells were cultured for a specified time.
Luciferase activity detection: NF-κB reporter gene plasmid p3κB-luc plasmid (100 ng), internal reference plasmid pSV-β-Galactosidase Control Vector (5 ng) were transfected into HEK293T cells. After 24 hours. TNF-α (20 ng/ml) was added (or not added) to stimulate the cells for 24 hours, and then the cells were collected and lysed with reporter lysis buffer. Luciferase assay system was used to detect luciferase activity. and Beta-Glo Asaay system was used to detect β-Galactosidase activity.

[2] = tested on: CD4+T-cells; assay: CFSE proliferation of CD4+T-cells in PHA-P stimulated PBMC; type: cell-based, human; conditions: for inhibition of the proliferation of CD4+T-cells in healthy human peripheral blood: Comparative Example 4, PHA-P 5 μg/mL, 100 ng/mL, 72 hours, FIG. 7
Experimental: Healthy human peripheral blood mononuclear cells (PBMC) (purchased from ATCC) were cultured in RPMI-1640/10% FBS serum medium containing IL-2 (20IU). and then stained with CFSE (carboxyfluorescein diacetate succinimidy ester) (10 nM) at 37° C. for 10 minutes, washed twice with the above medium, followed by addition of PHA-P (phytohemagglutinin P) (5 μg/mL) to stimulate cell proliferation with or without addition of T8 compound (100 nM).
The cells were washed with the medium twice, PHA-P (5 μg/mL) was added, and the test compound T8 or triptolide (100 ng/mL each) was added at the same time. After 72 hours at 37° C. the cells were collected, stained with anti-CD4-PE antibody at 4°° C. for 30 minutes, and washed with FACS buffer twice. The cell proliferation was analyzed by flow cytometry.

[3] = MTT cytotoxicity test; type: cell-based; conditions: human, HEK293T cells, read-out: CC50 (50% Cytotoxic Concentration)
Experimental: MTT colorimetric method was used to detect the cytotoxicity. HEK293T cells were seeded into 96-well plates (1×10^4/100 μL/well), 100 μL of each concentration of the compounds (compound concentration refers to the figures) was added in triplicate. Control wells without compound were setting at the same time. The cells were incubated in a 37° C. 5% CO2 cell incubator for 72 hours. 100 μL of the supernatant was aspirated from each well and discarded, followed by addition of 20 μL of MTT solution (5 mg/mL) into the wells. […] The absorbance was measured at 595 nm. The CC50 value (50% Cytotoxic Concentration) was calculated, i.e., the concentration of the compound required for producing toxicity on 50% of HEK293T cells.

[4] = tested on: CD4 counts; assay: Phase II placebo-controlled trial in HIV immunological non-responders: CD4 counts; type: in vivo, human; conditions: for participants with a CD4 count increase over 50 cells/mm^3: placebo 34.6%; for mean absolute increase of CD4 count from baseline: week 48, placebo 32; for CD4 count at Week 48: FAS, with ART
[5] = tested on: interferon-γ-induced protein 10 (IP-10); assay: Phase II trial: serum IP-10; type: in vivo, human; set-up: mean change of serum interferon-γ-induced protein 10: unit not given here; conditions: placebo −22.8; for mean change of serum IP-10 level: Week 48
Experimental: (§1) The phase II, double-blind, randomized, placebo-controlled trial was conducted in adults patients with long-term suppressed HIV infection and suboptimal CD4 recovery, at nine hospitals in China.
(§2) The patients were 1:1:1 assigned to receive oral T8 0.5 mg or 1 mg daily, or placebo combined with antiretroviral therapy for 48 weeks. All study staff and participants were masked. The study drug was recommended to be taken in the morning on an empty stomach, and be separated from participants' daily ART. Participants were followed and assessed at Week 4, 12, 24, 36 and 48 of treatment. On each scheduled visit, the investigator would assess the participant's general status, newly-onset symptoms and signs, and adverse events.
(§3) The primary endpoints of the study included 1) Absolute change of CD4 counts from baseline to week 48: 2) Proportions of participants achieving a CD4 increase ≥50 cells/mm^3 from baseline to week 48: and 3) changes of selected inflammatory markers from baseline to week 48, including interferon-y-induced protein 10 (IP-10), high-sensitivity C-reactive protein (hsCRP), and IL-6.
The primary efficacy differences between treatments on CD4 counts and inflammatory marker level were assessed through the t-test and analysis of covariance (ANCOVA) model. The ANCOVA model, including the baseline CD4 counts as the covariate, study group and center as fixed factors, generated the Least square means (LSMEANs) and relative 95% confidence interval (95% CI) in both FAS and PPS.

[6] = tested on: high-sensitivity C-reactive protein (hsCRP); assay: Phase II trial: hsCRP; type: in vivo, human; conditions: 1 mg daily (HT8), Week 48
Experimental: as §1, §2, §3

[7] = tested on: IL-6; assay: Phase II trial: IL-6; type: in vivo, human; conditions: 1 mg daily (HT8), Week 48
Experimental: as §1, §2, §3

[8] = tested on: CD8 T cells; assay: Phase II trial: cellular activation of CD8 T cells (CD38, HLA-DR); type: in vivo, human; conditions: among the three groups (0.5 mg, 1 mg, placebo), 62 participants
Experimental: T-cell subsets were measured using CytoFlex flow cytometer (Beckman Coulter Life Science) at participating centers, including T cells (CD45+CD3+), CD4 T cells (CD45+CD3+CD4+), and CD8 T cells (CD45+CD3+CD8+). In PUMCH Lab. exploratory CD8 markers (CD45+CD3+CD8+CD38+ and CD45+CD3+CD8+HLA-DR+) were further measured for participants in three Beijing centers.

[9] = Phase II trial: safety (adverse events); type: in vivo, human; conditions: for participants with treatment-emergent adverse events (TEAEs): placebo 80.7%
Experimental: as §2
Safety endpoints included occurrence of adverse events (AEs) and serious adverse events (SAEs) over the study period. Adverse events included those related to the study drug; all serious adverse events; and abnormal laboratory test values at each study visit.
The efficacy analysis was based on the full analysis set (FAS), which included all randomized patients with at least one posttreatment efficacy assessment, and the per-protocol set (PPS), which included patients who completed the study with proper study drug exposure and without any major protocol violations. The safety analysis was based on the safety analysis set (SAS), which included all randomized patients who received at least one dose of study drug. All safety results were descriptive, listed and summarized.

[10] = tested on: HIV-1; assay: Phase II trial: plasma HIV-1 viral load; type: in vivo, human; conditions: all participants, with ART, 48 weeks
Experimental: Plasma HIV-1 viral load was measured at Peking Union Medical College Hospital (PUMCH) Lab by COBAS AmpliPrep/COBAS TaqMan V2.0 RT-PCR (Roche). The lower detection limit is 20 copies per milliliter.

[11] = tested on: CD4+T-cell subsets; assay: Activation of CD4+T-cell subsets (CD38, HLA-DR expression by flow cytometry); conditions: for inhibition of immune activation of CD4+T-cell subsets by PMA+Ionomycin (CD38, HLA-DR): Comparative example 3, PMA 100 nM + Ionomycin 1 μM, 100 ng/ml; for inhibition of immune activation of CD4+T-cell subsets by PMA+Ionomycin (CD38, HLA-DR) / inhibition of immune activation of CD4+T-cell subsets by anti-CD3/CD28 antibody (CD38, HLA-DR): 72 hours; for inhibition of immune activation of CD4+T-cell subsets by anti-CD3/CD28 antibody (CD38, HLA-DR): Comparative example 3, isolated CD4+T-cells, anti-CD3/CD28 beads
Experimental: After 48 hours, the cells were stained with anti-human CD4, CD38, HLA-DR flow cytometry antibody (purchased from Invitrogen), and the CD4^+T-cells were gated by flow cytometry to detect the expression of CD38, HLA-DR molecules on the cell surface.
Freshly isolated healthy human PBMC (3×10^7 cells) were cultured in cell culture medium containing IL-2 (20 IU/mL), stimulated with PMA (100 nM) and Ionomycin (1 μM) for 72 hours, and the compound to be tested (100 ng/ml) was added at the same time: the cells were washed twice with FACS buffer, followed by addition of anti CD3-PerCP, CD4-PE, CD38-PE-Cy7. HLA-DR-APC antibodies, stained for 30 minutes at 4° C.: the cells were washed twice with FACS buffer, and the expression of the above molecules was detected by FACS.
CD4^+T-cells were isolated from freshly isolated healthy human PBMCs with anti-CD4 antibody-coated magnetic beads through positive screening and then cultured in a medium containing IL-2 (20 IU/mL). The cell activation was stimulated with anti-CD3/CD28 antibody-coated magnetic beads for 72 hours, and the compound to be tested was added at the same time. The cells were collected, washed twice with FACS buffer, followed by addition of anti CD3-PerCP, CD4-PE, CD38-PE-Cy7, HLA-DR-APC antibodies, stained at 4° C. for 30 minutes: the cells were washed twice with FACS buffer and collected, and the expression of the above molecules was detected by flow cytometry.

CC(C)[C@]12O[C@H]1[C@@H]1O[C@]13[C@]1(O[C@H]1C[C@@]1(O)C4=C(CC[C@]31C)C(=O)OC4)[C@@H]2O [T8, (5R)-5-hydroxytriptolide]
inhibition of the activity of the NF-κB signal pathway activated by TNF-α [1]: effectively inhibit
inhibition of the activity of the background NF-κB signaling pathway [1]: effectively inhibit
inhibition of background NF-κB activity (untreated with TNF-alpha) ([1]; Example 1, HEK293T, 100 nM, 24 h, FIG. 1): effectively inhibit
inhibition of NF-κB activity stimulated by TNF-alpha ([1]; Example 1, HEK293T, TNF-alpha 20 ng/mL, 100 nM, 24 h, FIG. 1): effectively inhibit
inhibition of the proliferation of CD4+T-cells in healthy human peripheral blood [2]: significantly inhibit
proliferation of CD4+T cells stimulated by PHA (cell proliferation) ([2]; Example 2, PBMC, PHA-P 5 μg/mL, 100 nM, 48 h, without compound 16.6%): 1.9%
CC50 at 72 h [3]: ~0.435 µg/mL (≈ 1.16 µM)
participants with a CD4 count increase over 50 cells/mm^3 ([4]; 0.5 mg daily (LT8), Week 48): 45.1%
mean absolute increase of CD4 count from baseline ([4]; 0.5 mg daily (LT8)): 49 cells/mm^3
CD4 increase in participants with a baseline CD4 count 200-350 cells/mm^3 ([4]; 1 mg daily (HT8) over placebo): consistent superiority
participants achieving a CD4 increase >20% (superiority) ([4]; 1 mg daily (HT8), Week 48): unremarkable
participants with a CD4 count increase over 50 cells/mm^3 ([4]; 1 mg daily (HT8), Week 48): 50%
participants achieving a CD4 increase >20% ([4]; 1 mg daily (HT8), week 24, versus other groups): more participants
mean absolute increase of CD4 count from baseline ([4]; 1 mg daily (HT8)): 63 cells/mm^3
mean increase of CD4 count in participants over 45 years old ([4]; 1 mg daily, 48 weeks, placebo 20): 96 cells/mm^3
CD4 count at Week 48 ([4]; 0.5 mg daily oral (LT8), 48 weeks): 299 cells/mm^3
CD4 count at Week 48 ([4]; 1 mg daily oral (HT8), 48 weeks): 303 cells/mm^3
effect on CD4 in participants with a baseline CD4 count below 200 cells/mm^3 ([4]; Week 48): insignificant
changes of CD4/CD8 ratio ([4]; Week 48, between the three groups (0.5 mg, 1 mg, placebo)): comparable
benefit in CD4 counts in participants receiving SARS-COV-2 vaccination ([4]; high-dose (1 mg), stratified analysis): insignificant
mean change of serum IP-10 level ([5]; 0.5 mg daily (LT8)): -42.5 pg/mL
mean change of serum interferon-γ-induced protein 10 ([5]; 1 mg daily (HT8), 48 weeks): −72.1
mean change of serum IP-10 level ([5]; 1 mg daily (HT8)): -72.1 pg/mL
change of HsCRP [6]: slight decrease
change of IL-6 [7]: slight decrease
surface expressions of CD38 or HLA-DR on CD8 T cells [8]: comparable
participants with treatment-emergent adverse events (TEAEs) ([9]; 0.5 mg daily (LT8), 48 weeks): 84.3%
drug-related SAEs ([9]; 0.5 mg or 1 mg daily, 48 weeks): No drug-related SAEs were reported
tolerability ([9]; 0.5 mg or 1 mg daily, all participants): well-tolerated
participants with treatment-emergent adverse events (TEAEs) ([9]; 1 mg daily (HT8), 48 weeks): 89.1%
TEAEs ≥Grade 3 ([9]; 1 mg daily (HT8), mostly neutrophil decrease and dyslipidemia): slightly more frequent
virological suppression during the study [10]: virologically-suppressed
inhibition of immune activation of CD4+T-cell subsets by PMA+Ionomycin (CD38, HLA-DR) [11]: significantly inhibit
inhibition of immune activation of CD4+T-cell subsets by anti-CD3/CD28 antibody (CD38, HLA-DR) [11]: significantly inhibit
HLA-DRCD4/CD4 ([11]; Example 3, PBMC, PMA 20 nM + Ionomycin 1 μM, 100 nM, 48 h, without compound 36.3%): 3.5%
CD38CD4/CD4 ([11]; Example 3, PBMC, PMA 20 nM + Ionomycin 1 μM, 100 nM, 48 h, without compound 41.6%): 31%

CC(C)[C@]12O[C@H]1[C@@H]1O[C@]13[C@]1(O[C@H]1C[C@H]1C4=C(CC[C@@]13C)C(=O)OC4)[C@@H]2O [triptolide]
inhibition of the activity of the NF-κB signal pathway activated by TNF-α [1]: effectively inhibit
inhibition of the activity of the background NF-κB signaling pathway [1]: effectively inhibit
inhibition of the proliferation of CD4+T-cells in healthy human peripheral blood [2]: significantly inhibit
CC50 at 72 h [3]: ~0.017 µg/mL (≈ 0.0472 µM)
inhibition of immune activation of CD4+T-cell subsets by PMA+Ionomycin (CD38, HLA-DR) [11]: significantly inhibit
inhibition of immune activation of CD4+T-cell subsets by anti-CD3/CD28 antibody (CD38, HLA-DR) [11]: significantly inhibit
